Values after ≈ are worked out from the molar mass of the structure shown.
Legend:
Assay type in all cases: functional
Staphylococcus aureus [1] = assay: Antibacterial activity against Staphylococcus aureus clinical isolate AD3 assessed as bacterial growth inhibition incubated for 24 hrs by broth microdilution method
Staphylococcus aureus [2] = assay: Antibacterial activity against Staphylococcus aureus ATCC 43300 assessed as bacterial growth inhibition incubated for 24 hrs by broth microdilution method
Staphylococcus aureus [3] = assay: Antibacterial activity against Staphylococcus aureus clinical isolate 144 assessed as bacterial growth inhibition incubated for 24 hrs by broth microdilution method
Staphylococcus aureus [4] = assay: Antibacterial activity against Staphylococcus aureus ATCC 29213 assessed as bacterial growth inhibition incubated for 24 hrs by broth microdilution method
Staphylococcus aureus [5] = assay: Antibacterial activity against methicillin-resistant Staphylococcus aureus ATCC 43300 infected in neutropenic mouse model of thigh infection assessed as reduction in bacterial load at 20 mg/kg, iv measured after 24 hrs by colony counting method
Escherichia coli [6] = assay: Antibacterial activity against Escherichia coli ATCC 25922 assessed as bacterial growth inhibition by broth microdilution method
Staphylococcus aureus [7] = assay: Antibacterial activity against Staphylococcus aureus ATCC 25923 assessed as bacterial growth inhibition by broth microdilution method
Escherichia coli [8] = assay: Antibacterial activity against Escherichia coli assessed as bacterial growth inhibition by CLSI based broth microdilution method
Staphylococcus aureus [9] = assay: Antibacterial activity against Staphylococcus aureus assessed as bacterial growth inhibition by CLSI based broth microdilution method
Pseudomonas aeruginosa [10] = assay: Antibacterial activity against Pseudomonas aeruginosa assessed as bacterial growth inhibition by CLSI based broth microdilution method
Streptococcus pneumoniae [11] = assay: Antibacterial activity against erythromycin-resistant Streptococcus pneumoniae AB11 expressing ermB/mefA assessed as bacterial growth inhibition incubated for 24 hrs by CLSI based broth microdilution method
Staphylococcus aureus [12] = assay: Antibacterial activity against penicillin-resistant Staphylococcus aureus ATCC 31007 assessed as bacterial growth inhibition by standard dilution assay
Streptococcus pneumoniae [13] = assay: Antibacterial activity against erythromycin-resistant Streptococcus pneumoniae B1 expressing ermB assessed as bacterial growth inhibition incubated for 24 hrs by CLSI based broth microdilution method
Staphylococcus aureus [14] = assay: Antibacterial activity against penicillin-resistant Staphylococcus aureus ATCC 31007 assessed as bacterial growth inhibition incubated for 24 hrs by CLSI based broth microdilution method
Staphylococcus aureus [15] = assay: Antibacterial activity against methicillin-resistant Staphylococcus aureus ATCC 43300 assessed as bacterial growth inhibition by standard dilution assay
Streptococcus pyogenes = assay: Antibacterial activity against erythromycin-resistant Streptococcus pyogenes clinical isolate 2 assessed as bacterial growth inhibition incubated for 24 hrs by CLSI based broth microdilution method
Staphylococcus aureus [16] = assay: Antibacterial activity against methicillin-resistant Staphylococcus aureus ATCC 43300 assessed as bacterial growth inhibition incubated for 24 hrs by CLSI based broth microdilution method
Staphylococcus aureus [17] = assay: Antibacterial activity against erythromycin-susceptible Staphylococcus aureus ATCC 25923 assessed as bacterial growth inhibition by standard dilution assay
Staphylococcus aureus [18] = assay: Antibacterial activity against Staphylococcus aureus assessed as bacterial growth inhibition
Escherichia coli [19] = assay: Antibacterial activity against Escherichia coli assessed as bacterial growth inhibition
Bacillus subtilis [20] = assay: Antibacterial activity against Bacillus subtilis assessed as bacterial growth inhibition by serial dilution method
[21] = tested on: Staphylococcus epidermidis; assay: Antibacterial activity against Staphylococcus epidermidis assessed as bacterial growth inhibition by serial dilution method
Staphylococcus aureus [22] = assay: Antibacterial activity against multidrug-resistant Staphylococcus aureus clinical isolate assessed as bacterial growth inhibition by broth dilution method
Staphylococcus aureus [23] = assay: Antibacterial activity against Staphylococcus aureus assessed as bacterial growth inhibition by broth dilution method
Pseudomonas aeruginosa [24] = assay: Antibacterial activity against Pseudomonas aeruginosa assessed as bacterial growth inhibition by broth microdilution method
Bacillus subtilis [25] = assay: Antibacterial activity against Bacillus subtilis assessed as bacterial growth inhibition by broth microdilution method
Staphylococcus aureus [26] = assay: Antibacterial activity against Staphylococcus aureus clinical isolate AD3 assessed as bacterial growth inhibition incubated for 24 hrs by CLSI based broth dilution method
Staphylococcus aureus [27] = assay: Antibacterial activity against Staphylococcus aureus ATCC 29213 assessed as bacterial growth inhibition incubated for 24 hrs by CLSI based broth dilution method
Staphylococcus aureus [28] = assay: Antibacterial activity against Staphylococcus aureus clinical isolate 144 assessed as bacterial growth inhibition incubated for 24 hrs by CLSI based broth dilution method
Staphylococcus aureus [29] = assay: Antibacterial activity against Staphylococcus aureus ATCC 43300 assessed as bacterial growth inhibition incubated for 24 hrs by CLSI based broth dilution method
Escherichia coli [30] = assay: Antibacterial activity against Escherichia coli assessed as bacterial growth inhibition by broth microdilution method
Staphylococcus aureus [31] = assay: Antibacterial activity against Staphylococcus aureus assessed as bacterial growth inhibition by broth microdilution method
Escherichia coli [32] = assay: Antibacterial activity against Escherichia coli clinical isolate assessed as bacterial growth inhibition by disk diffusion method
Staphylococcus aureus [33] = assay: Antibacterial activity against Staphylococcus aureus clinical isolate assessed as bacterial growth inhibition by disk diffusion method
Klebsiella pneumoniae = assay: Antibacterial activity against Klebsiella pneumoniae clinical isolate assessed as bacterial growth inhibition by disk diffusion method
Serratia marcescens = assay: Antibacterial activity against Serratia marcescens clinical isolate assessed as bacterial growth inhibition by disk diffusion method
Pseudomonas putida = assay: Antibacterial activity against Pseudomonas putida clinical isolate assessed as bacterial growth inhibition by disk diffusion method

C=C[C@]1(C)C[C@@H](OC(=O)Cn2cc(CN3CCN(c4ccccc4[N+](=O)[O-])CC3)nn2)[C@@]2(C)[C@@H]3C(=O)CC[C@@]3(CC[C@@H]2C)[C@@H](C)[C@@H]1O was tested, and the MIC (Staphylococcus aureus [1]) was 0.5 µg/mL (≈ 0.771 µM), the MIC (Staphylococcus aureus [2]) was 0.5 µg/mL (≈ 0.771 µM) and the MIC (Staphylococcus aureus [3]) was 0.5 µg/mL (≈ 0.771 µM). It also gave an MIC (Staphylococcus aureus [4]) of 0.5 µg/mL (≈ 0.771 µM).
C=C[C@]1(C)C[C@@H](OC(=O)CSCCN(CC)CC)[C@]2(C)[C@H](C)CC[C@]3(CCC(=O)[C@H]32)[C@@H](C)[C@@H]1O [TIAMULIN] showed an Activity (Staphylococcus aureus [5]) of -0.57 log10CFU/ml.
Cc1ccc2c(c1)C=C(c1nnn(Cc3cn(Cc4ccccc4)nn3)n1)CO2 showed an MIC (Escherichia coli [6]) of 6.5 µg/mL (≈ 16.9 µM) and an MIC (Staphylococcus aureus [7]) of 6.5 µg/mL (≈ 16.9 µM).
O=C(N/N=C/c1cn(-c2ccccc2)nc1-c1ccc([N+](=O)[O-])cc1)c1cccc(-n2cc(-c3ccccc3)nn2)c1 gave an MIC (Escherichia coli [8]) of 4 µg/mL (≈ 7.21 µM), an MIC (Staphylococcus aureus [9]) of 4 µg/mL (≈ 7.21 µM) and an MIC (Pseudomonas aeruginosa [10]) of 4 µg/mL (≈ 7.21 µM).
With CC[C@H]1OC(=O)[C@H](C)[C@@H](O[C@H]2C[C@@](C)(OC)[C@@H](O)[C@H](C)O2)[C@H](C)[C@@H](O[C@@H]2O[C@H](C)C[C@H](N(C)C)[C@H]2O)[C@](C)(O)C[C@@H](C)CN(C)[C@H](C)[C@@H](O)[C@]1(C)O [AZITHROMYCIN] the MIC (Streptococcus pneumoniae [11]) was greater than 256 µg/mL, the MIC (Staphylococcus aureus [12]) was greater than 128 µg/mL and the MIC (Streptococcus pneumoniae [13]) was greater than 256 µg/mL. The MIC (Staphylococcus aureus [14]) was greater than 256 µg/mL, the MIC (Staphylococcus aureus [15]) was greater than 128 µg/mL and the MIC (Streptococcus pyogenes) was greater than 256 µg/mL. The MIC (Staphylococcus aureus [16]) was greater than 256 µg/mL and the MIC (Staphylococcus aureus [17]) was greater than 128 µg/mL.
Cn1c([N+](=O)[O-])cnc1COCc1cn(-c2ccnc3cc(Cl)ccc23)nn1 was tested, and the MIC (Staphylococcus aureus [18]) was 1 µg/mL (≈ 2.5 µM) and the MIC (Escherichia coli [19]) was 1 µg/mL (≈ 2.5 µM).
CCn1cc(C(=O)O)c(=O)c2cc(F)c(N3CCNCC3)cc21 [NORFLOXACIN] gave an MIC (Bacillus subtilis [20]) of 3.12 µg/mL (≈ 9.77 µM), an MIC [21] of 3.12 µg/mL (≈ 9.77 µM) and an MIC (Staphylococcus aureus [22]) of 7.5 µg/mL (≈ 23.5 µM). For the same compound, the MIC (Staphylococcus aureus [23]) was 7.5 µg/mL (≈ 23.5 µM).
With C=CCCCCC1CC(=O)N1Cc1cn(-c2cccc(Cl)c2)nn1 (stereo unspecified) the MIC (Pseudomonas aeruginosa [24]) was 1.25 µg/mL (≈ 3.62 µM) and the MIC (Bacillus subtilis [25]) was 1.25 µg/mL (≈ 3.62 µM).
Work on C=C[C@]1(C)C[C@@H](OC(=O)CN2CCN(C(=O)Cn3cc(CN4CCN(c5ccc(Cl)cc5)CC4)nn3)CC2)[C@@]2(C)[C@@H]3C(=O)CC[C@@]3(CC[C@@H]2C)[C@@H](C)[C@@H]1O yielded an MIC (Staphylococcus aureus [26]) of 1 µg/mL (≈ 1.31 µM), an MIC (Staphylococcus aureus [27]) of 1 µg/mL (≈ 1.31 µM) and an MIC (Staphylococcus aureus [28]) of 1 µg/mL (≈ 1.31 µM). For the same compound, the MIC (Staphylococcus aureus [29]) was 1 µg/mL (≈ 1.31 µM).
CCCCCc1ccc(-c2cn(CC(=O)NNC(=O)O[C@H]3[C@H](C)[C@@H](O[C@H]4O[C@@H](C)C[C@@H](N(C)C)[C@@H]4O)[C@](C)(O)C[C@@H](C)CN(C)[C@H](C)C4OC(=O)O[C@@]4(C)[C@@H](CC)OC(=O)[C@@H]3C)nn2)cc1 (stereo partly specified) showed an MIC (Streptococcus pneumoniae [11]) of 4 µg/mL (≈ 4.3 µM), an MIC (Streptococcus pneumoniae [13]) of 4 µg/mL (≈ 4.3 µM) and an MIC (Staphylococcus aureus [14]) of 4 µg/mL (≈ 4.3 µM). For the same compound, the MIC (Streptococcus pyogenes) was 4 µg/mL (≈ 4.3 µM) and the MIC (Staphylococcus aureus [16]) was 4 µg/mL (≈ 4.3 µM).
CC(=O)Nc1ccc(S(=O)(=O)n2cc(CN3CCS(=O)(=O)CC3)nn2)cc1 showed an MIC (Escherichia coli [30]) of 1.56 µg/mL (≈ 3.77 µM), an MIC (Staphylococcus aureus [31]) of 1.56 µg/mL (≈ 3.77 µM) and an MIC (Pseudomonas aeruginosa [24]) of 1.56 µg/mL (≈ 3.77 µM). For the same compound, the MIC (Bacillus subtilis [25]) was 1.56 µg/mL (≈ 3.77 µM).
Clc1ccc(Cn2cc(Cn3nnc(C4=Cc5cc(Cl)ccc5OC4)n3)nn2)c(Cl)c1 was tested, and the MIC (Escherichia coli [6]) was 6.5 µg/mL (≈ 13.7 µM) and the MIC (Staphylococcus aureus [7]) was 6.5 µg/mL (≈ 13.7 µM).
In the case of Cc1ccc(NC(=O)Cn2cc(Cn3c4ccccc4c(=O)c4cc(C)ccc43)nn2)cc1, the MIC (Escherichia coli [32]) is reported as 12.3 µg/mL (≈ 28.1 µM), the MIC (Staphylococcus aureus [33]) is reported as 12.3 µg/mL (≈ 28.1 µM) and the MIC (Klebsiella pneumoniae) is reported as 12.3 µg/mL (≈ 28.1 µM). It also gave an MIC (Serratia marcescens) of 12.3 µg/mL (≈ 28.1 µM) and an MIC (Pseudomonas putida) of 12.3 µg/mL (≈ 28.1 µM).
CCCCCc1ccc(-c2cn(CCCN3CCOC(=O)[C@H](C)[C@@H](O[C@H]4C[C@@](C)(OC)[C@@H](O)[C@H](C)O4)[C@H](C)[C@@H](O[C@H]4O[C@@H](C)C[C@@H](N(C)C)[C@@H]4O)[C@](C)(OC)C[C@@H](C)[C@H](O)[C@H](C)C3)nn2)cc1 was tested, and the MIC (Streptococcus pneumoniae [11]) was 4 µg/mL (≈ 4.23 µM), the MIC (Streptococcus pneumoniae [13]) was 4 µg/mL (≈ 4.23 µM) and the MIC (Staphylococcus aureus [14]) was 4 µg/mL (≈ 4.23 µM). For the same compound, the MIC (Streptococcus pyogenes) was 4 µg/mL (≈ 4.23 µM) and the MIC (Staphylococcus aureus [16]) was 4 µg/mL (≈ 4.23 µM).

Reference: ChEMBL document CHEMBL5344406, “1,2,3-Triazole-containing hybrids with potential antibacterial activity against ESKAPE pathogens” (2022)
